Common to all, as to type: cell-based, Human papilloma virus
In one test the test system is HPV18. The test can be described thus: HPV18 DNA levels in keratinocytes by real-time PCR. Conditions: effective (pseudo) IC50. On the procedure:
(§1) Human keratinocytes, including those maintaining HPV episomes, are cultured on mitomycin C-treated J2 3T3 cells in media containing three parts Dulbecco's modified Eagle medium (DMEM) and one part F12 media, our modification of published methods (Rheinwald and Green, 1975). Media (E Media) is supplemented with 0.4 μg/mL hydrocortisone, 10 ng/mL cholera toxin, 5 μg/mL insulin, 24 μg/mL adenine, 5 μg/mL transferrin, […] (T3), 10 ng/mL epidermal growth factor (EGF), 1% penicillin-streptomycin, and 5% fetal bovine serum (FBS). All cells are passaged at 70% confluency at a split ratio of 1:5.
(§2) Polyamides for HPV 18 are dissolved at 10 mM in 100% DMSO and diluted with H2O to 1 mM. Polyamides are added to cells in E media at final concentrations of 0.1-10 μM, with final DMSO concentrations of 0.1%. As controls, cells are incubated with normal E media and E media containing the “vehicle” 0.1% DMSO. The HPV DNA levels are then quantified according to previously published procedures (Garner-Hamrick and Fisher, Virology, 301, 334-41, 2002). After incubation, cells are harvested from the plates by either trypsinization or direct lysis with proteinase K digestion buffer (PK buffer: 100 mM NaCl, 10 mM Tris pH 8, 25 mM EDTA, 0.5% SDS, 0.1 mg/mL proteinase K). Trypsinized cells are counted on a hemocytometer and pelleted by centrifugation. Episomal HPV is isolated by the Hirt method (Hirt, 1967) and cell pellets are lysed in 0.6% SDS with 10 mM EDTA. NaCl is next added to a final concentration of 1 M. Following an overnight incubation at 4° C., precipitates containing the chromosomal DNA are spun down and episomal DNA precipitated by the addition of isopropanol. Cells lysed directly in PK buffer are transferred to microfuge tubes and incubated at 50° C. for 2 h. Lysates are then extracted with phenol/chloroform/isoamyl alcohol and spun through a phase lock gel (Eppendorf, Hamburg, Germany). Total DNA is then precipitated with 0.3 M NaOAc and 2.5 vol. ethanol and resuspended in Tris-EDTA (TE) buffer.
Viral DNA levels are next quantified according to variations on our previously published methods (Garner-Hamrick and Fisher, Virology, 301, 334-41, 2002). Quantitative PCR is performed using Real-Time PCR technology on an ABI PRISM 7700 Sequence Detector. All primers and probes were designed using Primer Express 1.0 (ABI). For HPV 18, PCR primer-probe sets were designed within the L1 gene:
(§3) All primers and probes are synthesized and HPLC purified by Applied Biosystems (Foster City, Calif.). The HPV probes are labeled with the 5′ reporter dye FAM (6-carboxy-fluorescein) and the 3′ quencher dye TAMRA (6-carboxytetramethyl-rhodamine). A standard curve is generated using a range of 10^8 to 10 copies/reaction of cloned, genomic HPV31 or HPV18 DNA using the following formula: (1.82×10^15)(μg/μL stock DNA)/(length in base pairs)(2)=copies/μL stock DNA. PCR reactions contain final concentrations of 1× Universal Master Mix (PE Applied Biosystems), 200 nM of each primer, and 250 nM probe (PE Applied Biosystems) in a reaction volume of 25 μL. Each Hirt-isolated DNA sample is analyzed in triplicate reactions for episomal HPV. Copies/reaction are determined from the standard curve, and copies/cell determined according to the following formula: (copies/reaction)×(DNA dilution)/(total # cells)=copies/cell.
(Quantitative PCR measures a nucleic acid by following its amplification.)

The next test has as its system HPV 16. As to the kind of experiment: HPV 16 episome DNA levels in W12E cells by Q-PCR (Taqman). Conditions: for IC50: effective (pseudo) IC50, 50% reduction in HPV DNA relative to vehicle (0.1% DMSO), read-out: HPV-16 IC50; for effect on absolute HPV 16 DNA levels: higher doses, in some experiments, FIG. 3. How it is done:
Cells maintaining HPV 16 DNA were cultured for 72 hours in the presence of cidofovir, interferon γ or polyamide. Viral DNA was then quantified using real-time PCR and compared to vehicle (DMSO)-treated control cultures.
Compounds were initially tested for effects on HPV 16 episome DNA levels in W12E cells by Q-PCR (Taqman™) over 3 concentration ranges (0.1, 1 and 10 μM). W12E cells are a cervical keratinocyte cell line originally identified by M. Stanley (Cambridge University), and later optimized and provided by P. Lambert (U. of Wisconsin). […] In all cases (initial tests and follow-up IC50 tests), dose testing was performed in triplicate. […] Furthermore, all experiments were conducted in triplicate, multiple times. The data were then combined, pseudo or effective IC50 values calculated, and variance determined to reveal the fit of the data to the model and its reliability.
Keratinocytes that maintain HPV 16 episomes were treated with increasing concentrations of polyamides.

Another test deals with HPV31. As to the kind of experiment: HPV31 DNA levels in keratinocytes by real-time PCR. Conditions: effective (pseudo) IC50. On the procedure: as §1, §2
HPV31 primers-probe sets for PCR were also designed within the L1 gene:
as §3

As usually defined, the IC50 is the concentration that inhibits the measured activity by half. For `CN(C)CCCNC(=O)CCNC(=O)c1cc(NC(=O)c2cc(NC(=O)c3cc(NC(=O)CCNC(=O)c4cc(NC(=O)c5cc(NC(=O)c6cc(NC(=O)CCNC(=O)c7cc(NC(=O)c8cc(NC(=O)[C@H](N)CCNC(=O)c9cc(NC(=O)c%10cc(NC(=O)CCNC(=O)c%11nc(NC(=O)c%12cc(NC(=O)c%13cc(NC(=O)CCNC(=O)c%14cc(NC(=O)c%15cc(NC(=O)c%16nccn%16C)cn%15C)cn%14C)cn%13C)cn%12C)cn%11C)cn%10C)cn9C)cn8C)cn7C)cn6C)cn5C)cn4C)cn3C)cn2C)cn1C` [Polyamide 1066, ImPPβPPIβPPγNH2PPβPPPβPPPβDp], the IC50 in the test with HPV18, in the test on HPV 16 and in the test on HPV31 was 100 to 1000 nM in each case.
Turning to `CN(CCCN)CCCNC(=O)CCNC(=O)c1cc(NC(=O)c2cc(NC(=O)c3cc(NC(=O)CCNC(=O)c4cc(NC(=O)c5cc(NC(=O)c6cc(NC(=O)CCNC(=O)c7cc(NC(=O)c8cc(NC(=O)[C@H](N)CCNC(=O)c9cc(NC(=O)c%10cc(NC(=O)CCNC(=O)c%11nc(NC(=O)c%12cc(NC(=O)c%13cc(NC(=O)CCNC(=O)c%14cc(NC(=O)c%15cc(NC(=O)c%16nccn%16C)cn%15C)cn%14C)cn%13C)cn%12C)cn%11C)cn%10C)cn9C)cn8C)cn7C)cn6C)cn5C)cn4C)cn3C)cn2C)cn1C` [Polyamide 1067, ImPPβPPIβPPγNH2PPβPPPβPPPβTa], the half-maximal inhibitory concentration (IC50) in the test with HPV18, with HPV 16 and in the test on HPV31 was 100 to 1000 nM throughout.
`CN(CCCN)CCCNC(=O)CCNC(=O)c1cc(NC(=O)c2cc(NC(=O)c3cc(NC(=O)CCNC(=O)c4cc(NC(=O)c5cc(NC(=O)c6cc(NC(=O)CCNC(=O)c7cc(NC(=O)CCNC(=O)CCCNC(=O)c8nc(NC(=O)c9cc(NC(=O)c%10cc(NC(=O)CCNC(=O)c%11cc(NC(=O)c%12nc(NC(=O)c%13cc(NC(=O)CCNC(=O)c%14cc(NC(=O)c%15cc(NC(=O)c%16nccn%16C)cn%15C)cn%14C)cn%13C)cn%12C)cn%11C)cn%10C)cn9C)cn8C)cn7C)cn6C)cn5C)cn4C)cn3C)cn2C)cn1C` [Polyamide 1045, ImPPβPIPβPPIγβPβPPPβPPPβTa]: the figures for the IC50 in the test on HPV18, in the test with HPV 16 and in the test on HPV31 were 100 to 1000 nM, more than 1000 nM and not below 1000 nM, respectively.
The like results for `CN(CCCN)CCCNC(=O)c1cc(NC(=O)c2cc(NC(=O)c3cc(NC(=O)c4cc(NC(=O)c5cc(NC(=O)CCNC(=O)c6cc(NC(=O)c7cc(NC(=O)CCCNC(=O)c8cc(NC(=O)c9cc(NC(=O)c%10cc(NC(=O)CCNC(=O)c%11cc(NC(=O)c%12cc(NC(=O)c%13nccn%13C)cn%12C)cn%11C)cn%10C)cn9C)cn8C)cn7C)cn6C)cn5C)cn4C)cn3C)cn2C)cn1C` [Polyamide 1069, ImPPβPPPγPPβPPPPPTa] were, in that order, not below 1000 nM, 100 to 1000 nM and 100 to 1000 nM.
The like results for `CN(C)CCCNC(=O)CCNC(=O)c1cc(NC(=O)c2cc(NC(=O)c3cc(NC(=O)CCNC(=O)c4cc(NC(=O)c5cc(NC(=O)c6cc(NC(=O)CCNC(=O)c7cc(NC(=O)c8cc(NC(=O)[C@@H](CCN)NC(=O)c9cc(NC(=O)c%10cc(NC(=O)CCNC(=O)c%11nc(NC(=O)c%12cc(NC(=O)c%13cc(NC(=O)CCNC(=O)c%14cc(NC(=O)c%15cc(NC(=O)c%16nccn%16C)cn%15C)cn%14C)cn%13C)cn%12C)cn%11C)cn%10C)cn9C)cn8C)cn7C)cn6C)cn5C)cn4C)cn3C)cn2C)cn1C` [Polyamide 1050, ImPPβPPIβPPγNH2PPβPPPβPPPβDp] were, in that order, not below 1000 nM, 100 to 1000 nM and 100 to 1000 nM.
The like results for `CN(C)CCCNC(=O)CCNC(=O)c1cc(NC(=O)c2cc(NC(=O)c3cc(NC(=O)CCNC(=O)c4cc(NC(=O)c5cc(NC(=O)c6cc(NC(=O)CCNC(=O)c7cc(NC(=O)c8cc(NC(=O)CCCNC(=O)c9cc(NC(=O)c%10cc(NC(=O)CCNC(=O)c%11nc(NC(=O)c%12cc(NC(=O)c%13cc(NC(=O)CCNC(=O)c%14cc(NC(=O)c%15cc(NC(=O)c%16nccn%16C)cn%15C)cn%14C)cn%13C)cn%12C)cn%11C)cn%10C)cn9C)cn8C)cn7C)cn6C)cn5C)cn4C)cn3C)cn2C)cn1C` [Polyamide 1040, ImPPβPPIβPPγPPβPPPβPPPβDp] were, in that order, 100 to 1000 nM, 100 to 1000 nM and 100 to 1000 nM.
Turning to “ImPPPβPPβPPPγPPPβPPPβPPPβDp [Polyamide 1004]”, the IC50 in the test with HPV18 is not above 100 nM; in the test on HPV 16, 100 to 1000 nM; in the test with HPV31, 100 to 1000 nM. Further, the “effect on absolute HPV 16 DNA levels” value in the test with HPV 16 was “nearly complete elimination of detectable viral DNA”.
Consider `CN(C)CCCNC(=O)CCNC(=O)c1cc(NC(=O)CCNC(=O)c2cc(NC(=O)c3cc(NC(=O)c4cc(NC(=O)CCNC(=O)c5cc(NC(=O)c6cc(NC(=O)[C@H](N)CCNC(=O)CCNC(=O)c7cc(NC(=O)c8cc(NC(=O)CCNC(=O)c9cc(NC(=O)c%10cc(NC(=O)c%11cc(NC(=O)c%12nccn%12C)cn%11C)cn%10C)cn9C)cn8C)cn7C)cn6C)cn5C)cn4C)cn3C)cn2C)cn1C` [Polyamide 1029, ImPPPβPPβγNH2PPβPPPβPβDp], for which the IC50 is not below 1000 nM in the test with HPV18, 100 to 1000 nM in the test on HPV 16 and 100 to 1000 nM in the test with HPV31.
With “ImPPPβPPβPPPγNH2PPPβPPPβPPPβDp [Polyamide 1003]”, the half-inhibitory concentration (IC50) in the test on HPV18, with HPV 16 and in the test with HPV31 was 100 to 1000 nM in each case.
For “ImPPβPPIβPPγPPβPPPβPPPPTa [Polyamide 1070]”, the IC50 in the test with HPV18, in the test with HPV 16 and in the test on HPV31 was 100 to 1000 nM throughout.
As to `CN(CCCN)CCCNC(=O)CCNC(=O)CCNC(=O)c1cc(NC(=O)c2cc(NC(=O)c3cc(NC(=O)CCNC(=O)c4cc(NC(=O)c5cc(NC(=O)c6cc(NC(=O)CCCNC(=O)c7cc(NC(=O)c8cc(NC(=O)c9cc(NC(=O)CCNC(=O)c%10cc(NC(=O)c%11cc(NC(=O)c%12cc(NC(=O)c%13nccn%13C)cn%12C)cn%11C)cn%10C)cn9C)cn8C)cn7C)cn6C)cn5C)cn4C)cn3C)cn2C)cn1C` [Polyamide 1031, ImPPPβPPPγPPPβPPPββTa], the 50% inhibitory concentration (IC50) in the test with HPV18, in the test with HPV 16 and with HPV31 was 100 to 1000 nM each time. The “effect on absolute HPV 16 DNA levels” value with HPV 16 is given as “nearly complete elimination of detectable viral DNA”.
As for `CN(C)CCCNC(=O)CCNC(=O)c1cc(NC(=O)c2cc(NC(=O)c3cc(NC(=O)CCNC(=O)c4cc(NC(=O)c5cc(NC(=O)c6cc(NC(=O)CCNC(=O)c7cc(NC(=O)c8cc(NC(=O)c9cc(NC(=O)CCCNC(=O)c%10cc(NC(=O)c%11cc(NC(=O)CCNC(=O)c%12cc(NC(=O)c%13cc(NC(=O)c%14cc(NC(=O)CCNC(=O)c%15cc(NC(=O)c%16cc(NC(=O)c%17cc(NC(=O)c%18nccn%18C)cn%17C)cn%16C)cn%15C)cn%14C)cn%13C)cn%12C)cn%11C)cn%10C)cn9C)cn8C)cn7C)cn6C)cn5C)cn4C)cn3C)cn2C)cn1C` [Polyamide 1047, ImPPPβPPPβPPγPPPβPPPβPPPβDp], the IC50 was not below 1000 nM with HPV18, more than 1000 nM with HPV 16 and not below 1000 nM in the test with HPV31.

The values above are taken from patent publication US9290551B2, “Compounds for treating papilloma virus infection” (NanoVir, LLC, priority 2012, dated 2016).
